From US11098081B2, “Epitope tag and method for detection and/or purification of tagged polypeptides” (ChromoTek GmbH, priority 2015, dated 2021)
Blank lines part the entries; values can stand above or below the substance they belong to. Ends that are not written are not given here.

How the values were obtained:
BC2-Nb = assay: Biolayer interferometry of immobilised biotinylated BC2T peptides with BC2-Nb; type: binding, Vicugna pacos; conditions: for kon (M^−1s^−1): association rate constant; for Kd: biotinylated peptide on Streptavidin biosensor, BC2-Nb 5-50 nM, 1:1 binding model; for koff (s^−1): dissociation rate constant
Sequence of BC2-Nb (as listed by the source): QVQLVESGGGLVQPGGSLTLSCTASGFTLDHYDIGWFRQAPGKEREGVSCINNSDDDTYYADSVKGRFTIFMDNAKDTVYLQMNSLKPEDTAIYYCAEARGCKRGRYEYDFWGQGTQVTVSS
Description: Biolayer interferometry (BLI)-based affinity measurements were used to assess two improved variations of the original BC2T sequence (a: […], pTag1 SEQ ID NO:33, b. […], pTag2 SEQ ID NO:34) in comparison with the original BC2T sequence (c: BC2T SEQ ID NO:4) BC2T and improved variations thereof were synthesized as peptides with an N-terminal biotin attached through an ethylene glycol linker and immobilised on Streptavidin biosensors. Binding kinetics were analysed by incubating immobilised peptides with 4-5 concentrations of BC2-Nb (5-50 nM) and evaluated using a 1:1 binding model.
Listed are the dissociation constant (KD), the association […] and dissociation (koff) rate constants and markers of the quality of fit of a 1:1 binding model (χ^2, R^2). The constants reported for original BC2T differ from those listed in Table 1 because kinetics were analysed using a different method.
The affinity measurements of BC2-Nb to BC2T and improved variations pTag1 and pTag2 were performed using biolayer interferometry using a BLItz system instrument (fortéBIO). Biotinylated peptide of BC2T and its variations were immobilised on Streptavidin biosensors (fortéBIO). The loaded sensor was sequentially dipped into BLItz buffer (phosphate buffered saline, 0.1% (m/v) BSA, 0.02% (v/v) Tween20) for 120 s to determine base line signal, in a solution of BC2-Nb in BLItz buffer (concentration of 5-50 nM) for 120 s to determine association and in BLItz buffer for 600 s to determine dissociation. The shaking rate was 1200 rpm. As a reference, each peptide was also incubated with BLItz buffer only according to the protocol above. In a control experiment, Streptavidin biosensors were incubated with BC2-Nb without prior peptide immobilisation. The sensor was regenerated by sequential dips into 10 mM glycine pH 2.0 and BLItz buffer (repeated three times). Raw data were analysed using the software BLItz Pro (fortéBio) and a 1:1 binding model.

BC2 nanotrap [1] = assay: Elution of bound BC2-tagged protein from the BC2 nanotrap; type: binding; conditions: for GFPBC2T detected in elution fraction: competitive elution
Sequence of BC2 nanotrap (as listed by the source): as above
Description: […] Aliquots of released (R) and bound (B) fractions were analyzed by immunoblotting with an anti-GFP antibody.
For the elution experiments 40 μl of BC2 nanotrap (slurry) were incubated with 400 μl soluble protein extract (c=1 mg/ml) derived from E. coli cells expressing GFPBC2T for 1 h at 4° C. on an end-over-end rotor. After a centrifugation step (2500×g, 4° C., 2 min) the supernatant was discarded and the beads were washed four times in ice-cold PBS including a cup change after the second washing step. Subsequently, beads were pelleted and incubated with 80 μl of the indicated elution conditions for 15 min at RT. […] 0.1 mM or 1 mM BC2-peptide dissolved in 0.2 M Tris/Cl pH 7.4, 150 mM NaCl; acidic elution: 0.2 M Glycine-HCl adjusted to pH 1. pH 2 or pH 3; alkaline elution: 0 mM. 1 mM, 10 mM or 100 mM NaOH; elution with sodium thiocyanate. 0 M, 1 M, 2 M, or 3 M NaSCN. The eluates were collected and boiled in 1×SDS containing sample buffer and the remaining beads were washed twice in PBS before boiling in 40 μl 2× sample buffer. 10% of each elution (release, R) and bead bound (bound, B) fraction were analyzed by SDS-PAGE and immunoblotting using an anti-GFP antibody.

BC2 nanotrap [2] = assay: Immunoprecipitation of BC2-tagged GFP from E. coli lysate with the BC2 nanotrap; type: binding; conditions: soluble protein fraction of E. coli, SDS-PAGE, Coomassie and/or anti-GFP immunoblot
BC2 nanotrap [3] = assay: Immunoprecipitation of BC2-tagged proteins from HEK293T cell lysates with the BC2 nanotrap; type: binding; conditions: soluble protein fraction of HEK293T cells, immunoblot
Description: (d) The BC2 nanotrap binds BC2-tagged proteins from human cell lysates irrespectively whether the BC2 tag is located at the N- or the C-terminus. For immunoprecipitation of BC2-tagged proteins soluble protein fractions of HEK293T cells expressing BC2TeGFP, eGFPBC2T or solely eGFP were incubated with the BC2 nanotrap as described in (a). Input (I), non-bound (NB) and bound fractions (B) were separated by SDS-PAGE and visualized either by Coomassie Blue staining (top) or immunoblot analysis (bottom).
(a) For immunoprecipitation soluble protein fractions of HEK293T cells either expressing eGFP-PCNA (control) or BC2-tagged eGFP-PCNA (eGFP-PCNABC2T) (left panel) or mCherry-Vimentin (mCherry-VIM, control) or BC2-lagged mCherry-VIM (mCherry-VIMBC2T) were incubated with the BC2 nanotrap. Input (I), non-bound (NB) and bound fractions (B) were separated by SDS-PAGE and visualized either by immunoblot analysis using anti-PCNA or anti-Vimentin antibodies (upper panel). As loading control, blots were probed with an anti-GAPDH antibody (lower panel).
The BC2-capture system was further analyzed for one-step purification of recombinant proteins derived from human cells Specifically, it was investigated whether the terminal position of the BC2-tag has an impact on binding. […]
Next, it was tested whether the BC2 nanotrap can precipitate BC2-tagged cellular components of the intermediate filaments or the nuclear replication machinery BC2T was genetically fused either to mCherry-vimentin (mCherry-VIMBC2T) or eGFP-PCNA (eGFP-PCNABC2T) and both constructs were expressed in HEK293T cells. […] Soluble protein extracts were incubated with the BC2 nanotrap and whole lysate (input), non-bound and bound fractions were analyzed by immunoblotting using anti-vimentin or anti-PCNA antibodies. […]
HEK293T cells transiently expressing eGFP, eGFPBC2T or BC2TeGFP, eGFP-PCNA, eGFP-PCNABC2T, mCherry-Vimentin, mCherry-VimentinBC2T were washed and harvested in phosphate buffered saline (PBS), snap-frozen in liquid nitrogen and stored at −20° C. Cell pellets were homogenized in 200 μl lysis buffer (10 mM Tris/Cl pH 7.3, 150 mM NaCl, 0.5% NP40, 1 μg DNaseI, 2 mM MgCl2, 2 mM PMSF, 1× protease inhibitor mix M (Serva) by repealed pipetting for 40 min on ice. After a centrifugation step (10 min at 18.000×g) the protein concentration of each lysate was determined using a Pierce BCA Protein Assay Kit (Thermo Fisher Scientific) according to manufacturer's protocol and the protein solutions were adjusted with dilution buffer (10 mM Tris/Cl pH 7.5, 150 mM NaCl, 2 mM PMSF) to a concentration of 1 mg/ml, 2% of the supernatant were added to SDS-containing sample buffer (referred to as input). […] Samples were analyzed by SDS-PAGE followed by immunoblotting. […]

Substance: PDRKAAVSHWQQ [BC2T]
kon (M^−1s^−1) (BC2-Nb): 1.9 ± 0.1 × 10^5 M^−1s^−1
Kd (BC2-Nb): 2.6 nM
koff (s^−1) (BC2-Nb): 5.0 ± 0.1 × 10^−4 s^−1
GFPBC2T detected in elution fraction (BC2 nanotrap [1]; 0.1 mM BC2 peptide): ~60%
GFPBC2T detected in elution fraction (BC2 nanotrap [1]; 1 mM BC2 peptide): ~80%

Substance: PDRKAAVSHW (Epitope peptide 10 aa) [BC2T-10]
precipitation by the BC2 nanotrap from E. coli lysate (BC2 nanotrap [2]): efficiently recognized

Substance: eGFPBC2T: modified GFP comprising the BC2-tag on the C-terminus, expressed in HEK293T cells (eGFP-PDRKAAVSHWQQ; also: BC2 tag fused to the C-terminus of eGFP)
precipitation by the BC2 nanotrap from HEK293T lysate (BC2 nanotrap [3]): efficiently precipitated

Substance: GFPBC2T: GFP with a C-terminal BC2 tag, expressed in E. coli
precipitation by the BC2 nanotrap from E. coli lysate (BC2 nanotrap [2]): quantitatively precipitates
elution with MgCl2 (BC2 nanotrap [1]; MgCl2 0.5 M-4 M, data not shown): does not elute
release of bound protein (BC2 nanotrap [1]; alkaline elution, pH 11 and 12): 40-80%

Substance: GFPBC2T-10: GFP C-terminally fused to BC2T-10 ({GFP}-PDRKAAVSHW; also: BC2T-10 tag fused to the C-terminus of GFP)
precipitation by the BC2 nanotrap from E. coli lysate (BC2 nanotrap [2]): in a comparable manner as GFP tagged with the original BC2T

Kd (BC2-Nb): 0.7 nM
Substance: PDRVRAVSHWSS [pTag1]
dissociation rate constant koff slower than for original BC2T (BC2-Nb): 7 ×
kon (M^−1s^−1) (BC2-Nb): 9.2 ± 0.5 × 10^4 M^−1s^−1
koff (s^−1) (BC2-Nb): 6.8 ± 0.4 × 10^−5 s^−1

Substance: RKAAVSHW (Epitope peptide 8 aa) [BC2T-8]
precipitation by the BC2 nanotrap from E. coli lysate (BC2 nanotrap [2]): efficiently recognized

Substance: eGFP-PCNABC2T: BC2T genetically fused to the C-terminus of eGFP-PCNA
precipitation by the BC2 nanotrap from HEK293T lysate (BC2 nanotrap [3]): efficiently precipitated

Kd (BC2-Nb): 1.9 nM
Substance: ADRVRAVSHWSS [pTag2]
kon (M^−1s^−1) (BC2-Nb): 1.1 ± 0.1 × 10^5 M^−1s^−1
koff (s^−1) (BC2-Nb): 2.0 ± 0.1 × 10^−4 s^−1

Substance: GFPBC2T-8: GFP C-terminally fused to BC2T-8 ({GFP}-RKAAVSHW; also: BC2T-8 tag fused to the C-terminus of GFP)
precipitation by the BC2 nanotrap from E. coli lysate (BC2 nanotrap [2]): in a comparable manner as GFP tagged with the original BC2T

Substance: BC2TeGFP: modified GFP comprising the BC2-tag on the N-terminus, expressed in HEK293T cells (PDRKAAVSHWQQ-eGFP; also: BC2 tag fused to the N-terminus of eGFP)
precipitation by the BC2 nanotrap from HEK293T lysate (BC2 nanotrap [3]): efficiently precipitated

Substance: mCherry-VIMBC2T: BC2T genetically fused to the C-terminus of mCherry-Vimentin
precipitation by the BC2 nanotrap from HEK293T lysate (BC2 nanotrap [3]): efficiently precipitated
